The values that follow come from article PMC12678836, “Screening for dual-target enzyme inhibitors derived from Gardenia jasminoides roots, a medicinal and edible plant: investigation of their potential anti-dementia activity” (Frontiers in Nutrition, 2025).

The target in assay [1] is T1, 5-LOX (Glycine max, UniProt P08170).
T1 sequence (P08170 1-839): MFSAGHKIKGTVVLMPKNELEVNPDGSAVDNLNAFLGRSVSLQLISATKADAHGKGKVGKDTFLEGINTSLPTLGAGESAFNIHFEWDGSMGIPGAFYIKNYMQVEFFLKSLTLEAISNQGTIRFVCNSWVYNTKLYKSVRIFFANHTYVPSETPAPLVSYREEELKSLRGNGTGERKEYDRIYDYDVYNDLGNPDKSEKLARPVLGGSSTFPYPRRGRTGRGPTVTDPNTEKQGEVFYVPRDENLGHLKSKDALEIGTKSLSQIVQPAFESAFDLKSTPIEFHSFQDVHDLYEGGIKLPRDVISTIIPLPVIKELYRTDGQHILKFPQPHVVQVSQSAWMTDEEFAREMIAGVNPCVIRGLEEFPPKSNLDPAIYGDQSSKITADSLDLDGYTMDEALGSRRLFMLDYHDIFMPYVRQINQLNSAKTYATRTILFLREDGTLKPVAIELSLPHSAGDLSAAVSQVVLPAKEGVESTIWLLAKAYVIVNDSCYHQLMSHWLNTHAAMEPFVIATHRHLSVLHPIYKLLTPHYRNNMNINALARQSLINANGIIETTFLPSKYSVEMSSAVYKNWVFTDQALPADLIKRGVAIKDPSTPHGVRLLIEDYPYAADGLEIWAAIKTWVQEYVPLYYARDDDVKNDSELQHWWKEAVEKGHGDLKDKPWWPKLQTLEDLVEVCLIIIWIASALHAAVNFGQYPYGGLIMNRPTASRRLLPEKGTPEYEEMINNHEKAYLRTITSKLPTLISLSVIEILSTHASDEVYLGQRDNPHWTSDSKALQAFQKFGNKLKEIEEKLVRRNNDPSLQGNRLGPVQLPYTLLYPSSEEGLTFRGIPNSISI
The assay is described as follows: Affinity ultrafiltration-HPLC binding degree to 5-LOX. Conditions: GJR extract, 37 °C 30 min. The protocol: (§1) A total of 300 g of GJR was accurately weighed, dried, and ground into a fine powder using a mechanical grinder. The powdered material was extracted with 60% ethanol (v/v) at a solvent-to-solid ratio of 20:1 (v/v). Each extraction cycle involved ultrasonication for 1 h and was performed twice to ensure exhaustive extraction. The combined extracts were concentrated to dryness by rotary evaporation under reduced pressure, yielding 6.75 g of crude extract. A 50 mg portion of the crude extract was accurately weighed, dissolved in 50% methanol–water (v/v), and diluted to a final concentration of 50 mg/ml to obtain a stock solution for subsequent experiments. All procedures were conducted under controlled laboratory conditions to ensure consistency and reproducibility.
(§2) The screening assay consisted of two groups: a blank control and an experimental group, both prepared in phosphate-buffered saline (PBS). In the experimental group, 10.0 μl of the sample solution was mixed with 90.0 μl of either 5-lipoxygenase (5-LOX) and acetylcholinesterase (AChE) at final concentrations of 0.5, 1.0, or 2.0 U/ml, along with 100 μl of PBS (pH 7.4), resulting in a total volume of 200 μl. The mixture was incubated at 37 °C for 30 min and subsequently filtered through a 100 kDa ultrafiltration membrane by centrifugation at high speed for 10 min. The supernatant was discarded, and the membrane was washed three times with PBS to remove free or non-specifically bound compounds. Then, 150 μl of 50% methanol–water was added to denature the proteins and release the bound small molecules. For the blank control, the enzyme solution was replaced with an equal volume of PBS, while all other experimental conditions remained the same. The resulting eluate was analyzed by HPLC. The binding degree (BD) was used to quantify the interaction between compounds and the target enzymes. It was calculated based on the increase in chromatographic peak area of enzyme-bound compounds, using the following formula: […]

Assay [2] addresses T2, AChE (Musca domestica, UniProt A0ABM3VDL1). The assay can be described thus: Affinity ultrafiltration-HPLC binding degree to AChE. Also on record: species or system fly. Conditions: GJR extract, 37 °C 30 min. The protocol: as §1, §2
Assay [3] deals with T1, 5-LOX. The assay is described as follows: 5-LOX enzyme inhibition and inhibition kinetics (linoleic acid substrate, HPLC). In kind it is biochemical. To be noted: Lineweaver-Burk / rate vs enzyme concentration. An excerpt: Galantamine served as the positive control.
For assay [4], the target named is T2, AChE.
Method: Acetylcholinesterase (AChE, EC 3.2.1.20) was extracted from fly heads.
All reagents were prepared with 0.05 mol/L phosphate buffer solution at pH 6.8. […] Before use, it was diluted to 0, 5, 10, 15, and 20 × 10^−5 mol/L. 5-LOX and linoleic acid were, respectively prepared at concentrations of 2.08 × 10^−7 and 5.0 × 10^−4 mol/L. AChE and iodinated thioacetylcholine were prepared using the same method.
The mixture was incubated for 10 min at 37 °C in a thermostatic water bath to form the enzyme reaction solution, followed by the addition of linoleic acid (5.0 × 10^−4 mol/L) as the substrate. […] For the AChE assay, 0.1 ml of DTNB solution was included in the reaction mixture and incubated under the same conditions as those used in the 5-LOX experiment, while all other procedural steps remained identical. The control group was not supplemented with samples, while the blank group received an equal volume of buffer solution in place of the enzyme solution. […] Enzyme activity in the absence of any inhibitor was regarded as 100%.
By analyzing the correlation between reaction rate and enzyme concentration, a kinetic curve was generated.
Data analysis was carried out using Origin 8.0 software through one-way ANOVA, with each sample group subjected to three independent replicate experiments (p < 0.05).

Each structure is given as a SMILES string. Like-named read-outs stand apart in the source and are kept apart here.

T2 sequence (A0ABM3VDL1 81-660): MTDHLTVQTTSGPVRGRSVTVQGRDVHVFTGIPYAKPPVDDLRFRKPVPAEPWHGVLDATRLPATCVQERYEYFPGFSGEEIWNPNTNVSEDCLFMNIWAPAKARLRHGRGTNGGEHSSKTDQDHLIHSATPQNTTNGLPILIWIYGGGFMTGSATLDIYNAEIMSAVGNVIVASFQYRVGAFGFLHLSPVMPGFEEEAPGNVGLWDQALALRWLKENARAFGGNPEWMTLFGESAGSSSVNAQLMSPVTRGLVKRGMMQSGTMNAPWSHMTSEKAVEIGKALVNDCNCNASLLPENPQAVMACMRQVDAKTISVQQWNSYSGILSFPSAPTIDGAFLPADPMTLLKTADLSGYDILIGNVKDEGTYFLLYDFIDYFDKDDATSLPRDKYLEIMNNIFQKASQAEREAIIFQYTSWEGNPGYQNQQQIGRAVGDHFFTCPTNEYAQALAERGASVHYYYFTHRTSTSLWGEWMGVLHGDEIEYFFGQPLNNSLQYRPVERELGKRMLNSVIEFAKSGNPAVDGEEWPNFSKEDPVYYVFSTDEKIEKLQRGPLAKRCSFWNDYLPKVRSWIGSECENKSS

On to `COc1cc(C2OCC3C(c4cc(OC)c(OC5OC(CO)C(O)C(O)C5O)c(OC)c4)OCC23)cc(OC)c1OC1OC(CO)C(O)C(O)C1O` (stereo not drawn) [Eleutheroside E], for which the “BD (binding degree) with 5-LOX” value in assay [1] (5-LOX 0.5 U/ml) was found to be 38.17%; in assay [1] (5-LOX 1.0 U/ml), 55.16%; in assay [1] (5-LOX 2.0 U/ml), 59.44%. Further, the entries for the “BD (binding degree) with AChE” value in assay [2] (AChE 0.5 U/ml), in assay [2] (AChE 1.0 U/ml) and in assay [2] (AChE 2.0 U/ml) were 12.19%, 21.06% and 69.87%, respectively.
As for `C[C@]1(O)CC[C@@H]2C(C(=O)O)=CO[C@@H](O[C@@H]3O[C@H](CO)[C@@H](O)[C@H](O)[C@H]3O)[C@@H]21` [Mussaenoside acid], the “Inhibition type for 5-LOX” value is reported as “competitive inhibition” in assay [3] and “reversible inhibition” in assay [3] (listed as mussaenoside acid). The “Kis, AChE” value in assay [4] (Lineweaver-Burk) came out at 102.08. The “Inhibition type for AChE” value in assay [4] (concentration exceeds 10 × 10^−5 mol/L) is “mixed-type inhibition”; in assay [4] (concentrations below 5 × 10^−5 mol/L), “competitive inhibition”; in assay [4] (overall statement in conclusion) it was “mixed-type inhibition”.
